Some test systems named below: 786-0 renal; HCC-2998 colon; HT29 colon; MDA-MB-435; NCI-H23 lung; OVCAR-4 ovarian; OVCAR-5 ovarian; SK-MEL-5 melanoma; SK-OV-3 ovarian; UO-31 renal.
Common to all, as to experiment: DTP human tumour cell line panel, 48 h

The structures appear in SMILES notation. “And” between values parts separate entries of the source, which are not always exact repeats. Equal values may be shown once.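 Cells were grown in 96-well plates and exposed to each compound for 48 hours at five concentrations; endpoints were interpolated linearly between bracketing concentrations, or set to the highest concentration if not reached. GI50 is the concentration that inhibits growth by half. TGI: concentration producing complete growth inhibition.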

In general, GI50 refers to the concentration that inhibits growth by half. The TGI is the concentration giving total growth inhibition. A lower TGI goes with greater sensitivity of the cells.

Turning to `CCCCCCCCCCCCCCCCOC(=O)c1c(C)[nH]c(/C=C2\N=C(c3ccc[nH]3)C=C2OC)c1C`, the GI50 in the experiment with 786-0 renal was 1.07 µM; in the experiment with HCC-2998 colon, 0.244 µM; with HT29 colon it was 0.083 µM; in the experiment with MDA-MB-435, 0.307 µM; in the experiment with NCI-H23 lung, 1.15 µM; in the experiment on OVCAR-4 ovarian it was 2.71 µM. Also, the GI50 with OVCAR-5 ovarian is 0.718 µM; in the experiment on SK-MEL-5 melanoma, 0.119 µM; in the experiment on SK-OV-3 ovarian, 2.35 µM; with UO-31 renal, 1.21 µM. The TGI in the experiment with 786-0 renal is 14.4 µM; in the experiment with HCC-2998 colon it was 14.9 µM; in the experiment on HT29 colon it was over 100 µM; in the experiment with MDA-MB-435, over 100 µM; in the experiment with NCI-H23 lung, 12.7 µM; with OVCAR-4 ovarian it was 53.6 µM. Moreover, the results for the TGI in the experiment on SK-MEL-5 melanoma, with SK-OV-3 ovarian and in the experiment on UO-31 renal were 0.703 µM, 5.9 µM and 17.1 µM, respectively.

Consider `C/C=C(\CCC1NCCc2c1[nH]c1ccccc21)[Si](C)(C)C` (stereo unspecified), for which the GI50 in the experiment with 786-0 renal is 5.26 µM and 1.81 µM; with HCC-2998 colon it was 5.5 µM and 1.78 µM; with HT29 colon it was 5.46 µM and 2.21 µM; in the experiment on NCI-H23 lung, 7.89 µM and 1.61 µM; in the experiment on OVCAR-5 ovarian it was 6.34 µM and 2.42 µM; with SK-MEL-5 melanoma it was 5.63 µM and 2.32 µM. Also, the GI50 in the experiment with UO-31 renal is 8.47 µM and 3.65 µM. Also, the concentration for total growth inhibition (TGI) in the experiment with 786-0 renal was 9.79 µM and 3.34 µM; in the experiment on HCC-2998 colon, 9.91 µM and 3.3 µM; with HT29 colon it was 10.4 µM and 5.03 µM; with MDA-MB-435, 11.1 µM; in the experiment with NCI-H23 lung, 20.1 µM and 8.2 µM; in the experiment with OVCAR-4 ovarian, 12.6 µM and 9.04 µM. Moreover, the TGI was 16.6 µM and 8.04 µM in the experiment with OVCAR-5 ovarian; 10.2 µM and 5.23 µM with SK-MEL-5 melanoma; 25.2 µM and 26.5 µM in the experiment with SK-OV-3 ovarian; 22.5 µM and 10.5 µM with UO-31 renal.

Consider `COc1cc2c3c(n(CCCCNC(=O)OCC4c5ccccc5-c5ccccc54)c(=O)c2cc1OC)-c1cc2c(cc1C3=O)OCO2`, for which the GI50 in the experiment on 786-0 renal was 4.67 µM; in the experiment on HCC-2998 colon it was 14.9 µM; in the experiment with HT29 colon, 16.9 µM; with MDA-MB-435 it was 64.9 µM; with NCI-H23 lung it was 26.4 µM; in the experiment with OVCAR-4 ovarian, over 100 µM. For the same compound, the GI50 in the experiment with OVCAR-5 ovarian was 17.4 µM; in the experiment with SK-MEL-5 melanoma, 23.4 µM; in the experiment on SK-OV-3 ovarian, over 100 µM; in the experiment with UO-31 renal, 49.3 µM. For the same compound, the TGI is 28.1 µM with 786-0 renal; over 100 µM in the experiment on HCC-2998 colon; over 100 µM in the experiment on HT29 colon; over 100 µM in the experiment with MDA-MB-435; over 100 µM in the experiment on NCI-H23 lung; over 100 µM with OVCAR-4 ovarian. Moreover, the TGI in the experiment on OVCAR-5 ovarian was 51 µM; with SK-MEL-5 melanoma it was over 100 µM; with SK-OV-3 ovarian it was over 100 µM; in the experiment on UO-31 renal, over 100 µM.

With `O=C1/C(=C/c2ccc([N+](=O)[O-])o2)Oc2ccccc21`, the GI50 was 2.06 µM in the experiment on 786-0 renal; 1.98 µM in the experiment on HCC-2998 colon; 0.613 µM with HT29 colon; 1.79 µM with MDA-MB-435; 1.95 µM in the experiment with NCI-H23 lung; 1.61 µM with OVCAR-4 ovarian. Moreover, the GI50 in the experiment with OVCAR-5 ovarian is 1.85 µM; with SK-MEL-5 melanoma, 1.69 µM; in the experiment on SK-OV-3 ovarian, 6.4 µM; in the experiment with UO-31 renal it was 1.07 µM. For the same compound, the TGI with 786-0 renal stood at 4.12 µM; in the experiment on HCC-2998 colon, 3.94 µM; with HT29 colon it was 2.84 µM; with MDA-MB-435, 4.01 µM; in the experiment with NCI-H23 lung, 5.08 µM; in the experiment on OVCAR-4 ovarian, 3.65 µM. Moreover, the TGI is 3.5 µM with OVCAR-5 ovarian, 3.29 µM in the experiment with SK-MEL-5 melanoma, 18.2 µM in the experiment on SK-OV-3 ovarian and 2.86 µM with UO-31 renal.

Consider `O=C1/C(=C/c2ccc(Cl)cc2)CN(Cc2cn(CCNc3ccnc4cc(Cl)ccc34)nn2)C/C1=C\c1ccc(Cl)cc1`, for which the GI50 in the experiment on 786-0 renal is 0.247 µM; in the experiment with HCC-2998 colon, 0.246 µM; in the experiment with HT29 colon, 0.231 µM; in the experiment with MDA-MB-435, 0.326 µM; with NCI-H23 lung, 0.761 µM; in the experiment on OVCAR-4 ovarian, 0.353 µM. Moreover, the GI50 in the experiment with OVCAR-5 ovarian was 0.612 µM; in the experiment on SK-MEL-5 melanoma, 0.807 µM; in the experiment with SK-OV-3 ovarian, 1.03 µM; in the experiment with UO-31 renal, 0.242 µM. Moreover, the TGI with 786-0 renal was found to be 0.616 µM; with HCC-2998 colon it was 0.563 µM; in the experiment on HT29 colon it was 0.489 µM; in the experiment on MDA-MB-435 it was 1.08 µM; in the experiment with NCI-H23 lung it was 2.31 µM; in the experiment on OVCAR-4 ovarian, 1.81 µM. Also, the TGI in the experiment on OVCAR-5 ovarian was determined as 1.62 µM; with SK-MEL-5 melanoma, 2.08 µM; in the experiment on SK-OV-3 ovarian, 2.38 µM; with UO-31 renal it was 0.698 µM.

As for `COc1cc(C(=O)N2CCN(c3ccccc3OC)CC2)c(N)cc1OCc1ccccc1`, the GI50 in the experiment on 786-0 renal is 45.6 µM; in the experiment on HCC-2998 colon, 40 µM; in the experiment on HT29 colon it was 31.3 µM; in the experiment with MDA-MB-435, 28.1 µM; with NCI-H23 lung it was 48.4 µM; in the experiment with OVCAR-4 ovarian it was 32.2 µM. The GI50 is 80.6 µM in the experiment with OVCAR-5 ovarian, 16.5 µM with SK-MEL-5 melanoma, 49.9 µM in the experiment with SK-OV-3 ovarian and 22.4 µM in the experiment with UO-31 renal. The TGI in the experiment on 786-0 renal was over 100 µM; with HCC-2998 colon it was over 100 µM; in the experiment on HT29 colon, over 100 µM; in the experiment with MDA-MB-435, 76.5 µM; in the experiment with NCI-H23 lung, over 100 µM; in the experiment with OVCAR-4 ovarian, over 100 µM. Besides, the TGI is over 100 µM in the experiment with OVCAR-5 ovarian, 31.4 µM in the experiment with SK-MEL-5 melanoma, over 100 µM with SK-OV-3 ovarian and over 100 µM with UO-31 renal.

As to `COc1cc2c3c(n(CCCNC(=O)OCC4c5ccccc5-c5ccccc54)c(=O)c2cc1OC)-c1cc2c(cc1C3=O)OCO2`, the GI50 in the experiment on 786-0 renal was 37.7 µM; in the experiment with HCC-2998 colon, over 100 µM; in the experiment with HT29 colon, over 100 µM; in the experiment with MDA-MB-435, over 100 µM; in the experiment on NCI-H23 lung, over 64.1 µM; with OVCAR-4 ovarian, over 100 µM. The GI50 is over 100 µM with OVCAR-5 ovarian, 28.2 µM in the experiment on SK-MEL-5 melanoma, over 64.7 µM in the experiment on SK-OV-3 ovarian and over 100 µM with UO-31 renal. For the same compound, the total growth inhibition concentration (TGI) with 786-0 renal, in the experiment on HCC-2998 colon, with HT29 colon, in the experiment on MDA-MB-435, with NCI-H23 lung and in the experiment on OVCAR-4 ovarian was over 100 µM each time. Also, the TGI with OVCAR-5 ovarian, in the experiment with SK-MEL-5 melanoma, in the experiment on SK-OV-3 ovarian and with UO-31 renal was over 100 µM each time.

Values taken from PubChem BioAssay (NCI).
